Calls of active or inactive are those of the source. The calls are words filed in the database; no cut-off is given here.
What was measured:
PC-3 = assay: Induction of myristoylated AKT2 M225G mutant Thr308 hyperphosphorylation expressed in PC3 cells at 2.5 uM after 30 mins by immunoblotting; format: cell-based
[1] = system: RAC-alpha serine/threonine-protein kinase (Homo sapiens), P31749 [M227G,D292A]; assay: Induction of myristoylated AKT1 M227G and kinase dead D292A mutant Ser473 hyperphosphorylation expressed in MCF7 cells at 2.5 uM after 30 mins by immunoblotting; format: cell-based
Sequence of RAC-alpha serine/threonine-protein kinase (Homo sapiens), P31749 [M227G,D292A] (P31749 whole entry M227G/D292A): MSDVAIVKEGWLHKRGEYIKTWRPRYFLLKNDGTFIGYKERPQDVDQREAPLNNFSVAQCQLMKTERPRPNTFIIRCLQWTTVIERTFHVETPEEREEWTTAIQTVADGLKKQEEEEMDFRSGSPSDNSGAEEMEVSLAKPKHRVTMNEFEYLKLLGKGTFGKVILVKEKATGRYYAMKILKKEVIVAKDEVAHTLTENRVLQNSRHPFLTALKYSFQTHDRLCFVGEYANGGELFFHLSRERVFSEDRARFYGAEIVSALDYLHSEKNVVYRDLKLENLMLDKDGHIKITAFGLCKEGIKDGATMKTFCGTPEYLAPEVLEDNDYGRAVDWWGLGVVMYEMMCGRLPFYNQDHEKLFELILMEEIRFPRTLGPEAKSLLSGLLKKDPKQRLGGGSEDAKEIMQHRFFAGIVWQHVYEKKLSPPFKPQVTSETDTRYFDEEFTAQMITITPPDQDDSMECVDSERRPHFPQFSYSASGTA

MiaPaCa2 = assay: Induction of myristoylated AKT2 M225G and kinase dead D289A mutant Ser473 hyperphosphorylation expressed in MiaPaCa2 cells at 2.5 uM after 30 mins by immunoblotting; format: cell-based
[2] = system: RAC-alpha serine/threonine-protein kinase (Homo sapiens), P31749 [M227G]; assay: Induction of myristoylated AKT1 M227G Ser473 hyperphosphorylation expressed in PC3 cells at 2.5 uM after 30 mins by immunoblotting; format: cell-based; conditions: PC-3
Sequence of RAC-alpha serine/threonine-protein kinase (Homo sapiens), P31749 [M227G] (P31749 whole entry M227G): as the sequence (P31749 whole entry M227G/D292A) above, with A292D counted along it

[3] = system: RAC-alpha serine/threonine-protein kinase (Homo sapiens), P31749 [M227G]; assay: Induction of myristoylated AKT1 M227G Ser473 hyperphosphorylation expressed in HEK293 cells coexpressing flag-tagged wild type AKT1 after 30 mins by immunoblotting; format: cell-based
[4] = system: RAC-alpha serine/threonine-protein kinase (Homo sapiens), P31749 [M227G]; assay: Induction of myristoylated AKT1 M227G Thr308 hyperphosphorylation expressed in HEK293 cells coexpressing flag-tagged wild type AKT1 after 30 mins by immunoblotting; format: cell-based
[5] = system: RAC-alpha serine/threonine-protein kinase (Homo sapiens), P31749 [M227G]; assay: Induction of flag tagged AKT1 M227G Ser473 hyperphosphorylation expressed in HEK293 cells at 2.5 uM after 30 mins by immunoblotting; format: cell-based
[6] = system: RAC-alpha serine/threonine-protein kinase (Homo sapiens), P31749 [M227G]; assay: Induction of flag tagged AKT1 M227G Thr308 hyperphosphorylation expressed in HEK293 cells at 2.5 uM after 30 mins by immunoblotting; format: cell-based
[7] = system: RAC-alpha serine/threonine-protein kinase (Homo sapiens), P31749 [M227G]; assay: Induction of mCherry tagged AKT1 M227G Ser473 hyperphosphorylation expressed in HEK293 cells at 2.5 uM after 30 mins by immunoblotting; format: cell-based
HEK-293T [8] = assay: Induction myristoylated AKT2 M225G mutant Thr308 hyperphosphorylation expressed in HEK293T cells at 2.5 uM after 30 mins by immunoblotting; format: cell-based
HEK-293T [9] = assay: Induction myristoylated AKT2 M225G mutant Ser473 hyperphosphorylation expressed in HEK293T cells at 2.5 uM after 30 mins pretreated with pan-PI3K inhibitor PIK90 for 10 mins before compound addition by immunoblotting; format: cell-based
HEK-293T [10] = assay: Induction of myristoylated AKT3 M229G mutant Thr308 hyperphosphorylation expressed in HEK293T cells at 2.5 uM after 30 mins pretreated with pan-PI3K inhibitor PIK90 for 10 mins before compound addition by immunoblotting; format: cell-based
HEK-293T [11] = assay: Induction of myristoylated AKT3 M229G mutant Ser473 hyperphosphorylation expressed in HEK293T cells at 2.5 uM after 30 mins pretreated with pan-PI3K inhibitor PIK90 for 10 mins before compound addition by immunoblotting; format: cell-based
[12] = system: RAC-alpha serine/threonine-protein kinase (Homo sapiens), P31749 [M227G,R25C]; assay: Induction of myristoylated AKT1 M227G and R25C mutant Thr308 hyperphosphorylation expressed in HEK293T cells at 2.5 uM after 30 mins by immunoblotting; format: cell-based; conditions: HEK-293T
Sequence of RAC-alpha serine/threonine-protein kinase (Homo sapiens), P31749 [M227G,R25C] (P31749 whole entry R25C/M227G): as the sequence (P31749 whole entry M227G/D292A) above, with R25C, A292D counted along it

[13] = system: RAC-alpha serine/threonine-protein kinase (Homo sapiens), P31749 [M227G]; assay: Induction of membrane localized myristoylated AKT1 M227G mutant Ser473 hyperphosphorylation expressed in HEK293T cells at 2.5 uM after 30 mins by immunoblotting; format: cell-based; conditions: HEK-293T
[14] = system: RAC-alpha serine/threonine-protein kinase (Homo sapiens), P31749 [M227G]; assay: Induction of myristoylated AKT1 M227G mutant Ser473 hyperphosphorylation expressed in HEK293T cells at 2.5 uM after 30 mins pretreated with PDK1 inhibitor BX-795 for 10 mins before compound addition by immunoblotting; format: cell-based; conditions: HEK-293T
HEK-293T [15] = assay: Induction myristoylated AKT2 M225G mutant Thr308 hyperphosphorylation expressed in HEK293T cells at 2.5 uM after 30 mins pretreated with PDK1 inhibitor BX-795 for 10 mins before compound addition by immunoblotting; format: cell-based
HEK-293T [16] = assay: Induction myristoylated AKT2 M225G mutant Ser473 hyperphosphorylation expressed in HEK293T cells at 2.5 uM after 30 mins pretreated with PDK1 inhibitor BX-795 for 10 mins before compound addition by immunoblotting; format: cell-based
HEK-293T [17] = assay: Induction of myristoylated AKT3 M229G mutant Ser473 hyperphosphorylation expressed in HEK293T cells at 2.5 uM after 30 mins pretreated with PDK1 inhibitor BX-795 for 10 mins before compound addition by immunoblotting; format: cell-based
[18] = system: RAC-alpha serine/threonine-protein kinase (Homo sapiens), P31749 [M227G]; assay: Induction of myristoylated AKT1 M227G mutant Thr308 hyperphosphorylation expressed in HEK293T cells at 2.5 uM after 30 mins pretreated with mTOR kinase inhibitor PP242 for 10 mins before compound addition by immunoblotting; format: cell-based; conditions: HEK-293T
HEK-293T [19] = assay: Induction myristoylated AKT2 M225G mutant Thr308 hyperphosphorylation expressed in HEK293T cells at 2.5 uM after 30 mins pretreated with mTOR kinase inhibitor PP242 for 10 mins before compound addition by immunoblotting; format: cell-based
[20] = system: RAC-alpha serine/threonine-protein kinase (Homo sapiens), P31749 [M227G]; assay: Induction of myristoylated AKT1 M227G mutant Ser473 hyperphosphorylation expressed in HEK293T cells at 2.5 uM after 30 mins pretreated with mTOR kinase inhibitor PP242 for 10 mins before compound addition by immunoblotting; format: cell-based; conditions: HEK-293T
HEK-293T [21] = assay: Induction myristoylated AKT2 M225G mutant Ser473 hyperphosphorylation expressed in HEK293T cells at 2.5 uM after 30 mins pretreated with mTOR kinase inhibitor PP242 for 10 mins before compound addition by immunoblotting; format: cell-based
[22] = system: RAC-alpha serine/threonine-protein kinase (Homo sapiens), P31749 [M227G,D292A]; assay: Induction of myristoylated AKT1 M227G and kinase dead D292A mutant Thr308 hyperphosphorylation expressed in HEK293T cells at 2.5 uM after 30 mins by immunoblotting; format: cell-based; conditions: HEK-293T
[23] = system: RAC-alpha serine/threonine-protein kinase (Homo sapiens), P31749 [M227G,D292A]; assay: Induction of myristoylated AKT1 M227G and kinase dead D292A mutant Thr308 hyperphosphorylation expressed in MiaPaCa2 cells at 2.5 uM after 30 mins by immunoblotting; format: cell-based
[24] = system: RAC-alpha serine/threonine-protein kinase (Homo sapiens), P31749 [M227G,D292A]; assay: Induction of myristoylated AKT1 M227G and kinase dead D292A mutant Thr308 hyperphosphorylation expressed in PC3 cells at 2.5 uM after 30 mins by immunoblotting; format: cell-based; conditions: PC-3
[25] = system: RAC-alpha serine/threonine-protein kinase (Homo sapiens), P31749 [M227G]; assay: Induction of myristoylated AKT1 M227G Thr308 hyperphosphorylation expressed in MiaPaCa2 cells at 2.5 uM after 30 mins by immunoblotting; format: cell-based
[26] = system: RAC-alpha serine/threonine-protein kinase (Homo sapiens), P31749 [M227G]; assay: Induction of myristoylated AKT1 M227G Thr308 hyperphosphorylation expressed in PC3 cells at 2.5 uM after 30 mins by immunoblotting; format: cell-based; conditions: PC-3
[27] = system: RAC-alpha serine/threonine-protein kinase (Homo sapiens), P31749 [M227G]; assay: Induction of myristoylated AKT1 M227G mutant Thr308 hyperphosphorylation expressed in HEK293 cells after 30 mins by immunoblotting; conditions: HEK-293
[28] = biological target: Ribosomal protein S6 kinase beta-1 (Homo sapiens, UniProt P23443); assay: Inhibition of S6K1
Sequence of Ribosomal protein S6 kinase beta-1 (P23443 whole entry): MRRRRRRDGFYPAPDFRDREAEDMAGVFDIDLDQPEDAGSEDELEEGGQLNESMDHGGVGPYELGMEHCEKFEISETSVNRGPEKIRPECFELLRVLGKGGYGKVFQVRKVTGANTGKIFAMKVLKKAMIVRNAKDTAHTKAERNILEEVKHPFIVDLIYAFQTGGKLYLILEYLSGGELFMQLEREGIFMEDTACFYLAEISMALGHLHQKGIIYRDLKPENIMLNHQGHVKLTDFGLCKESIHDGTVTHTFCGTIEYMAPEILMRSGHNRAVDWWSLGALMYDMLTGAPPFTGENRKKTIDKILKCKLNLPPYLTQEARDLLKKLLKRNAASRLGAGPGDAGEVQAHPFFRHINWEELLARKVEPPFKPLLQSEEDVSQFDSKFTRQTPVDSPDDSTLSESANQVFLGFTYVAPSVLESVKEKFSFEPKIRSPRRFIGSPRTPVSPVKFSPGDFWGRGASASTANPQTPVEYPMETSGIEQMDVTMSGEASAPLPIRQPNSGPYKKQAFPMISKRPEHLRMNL

[29] = biological target: RAC-alpha serine/threonine-protein kinase (Rattus norvegicus) (UniProt P47196); assay: Induction AKT1 Thr308 hyperphosphorylation in insulin-induced rat L6 cells after 20 mins before insulin stimulation by immunoblotting; format: cell-based
Sequence of RAC-alpha serine/threonine-protein kinase (Rattus norvegicus) (P47196 whole entry): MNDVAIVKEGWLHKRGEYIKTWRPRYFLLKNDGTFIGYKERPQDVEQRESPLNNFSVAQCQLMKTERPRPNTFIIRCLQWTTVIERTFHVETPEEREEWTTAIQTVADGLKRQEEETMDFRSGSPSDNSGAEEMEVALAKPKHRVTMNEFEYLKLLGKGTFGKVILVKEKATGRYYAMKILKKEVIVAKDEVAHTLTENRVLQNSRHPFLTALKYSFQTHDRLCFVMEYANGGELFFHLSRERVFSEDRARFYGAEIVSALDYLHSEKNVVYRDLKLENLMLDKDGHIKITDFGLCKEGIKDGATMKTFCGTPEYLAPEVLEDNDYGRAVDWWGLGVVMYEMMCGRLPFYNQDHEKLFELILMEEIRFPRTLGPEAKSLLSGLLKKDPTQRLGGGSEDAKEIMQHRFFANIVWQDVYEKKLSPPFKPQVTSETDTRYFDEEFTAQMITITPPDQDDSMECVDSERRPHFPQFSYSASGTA

CCCc1cc(-c2cncc(OC[C@@H](N)Cc3c[nH]c4ccccc34)c2)cc2c(C)n[nH]c12
Activity (PC-3): Active
Activity [1]: Active
Activity (MiaPaCa2): Active
Activity [2]: Active
Activity [3]: Active
Activity [4]: Active
Activity [5]: Active
Activity [6]: Active
Activity [7]: Active
Activity (HEK-293T [8]): Active
Activity (HEK-293T [9]): inactive
Activity (HEK-293T [10]): inactive
Activity (HEK-293T [11]): inactive
Activity [12]: inactive
Activity [13]: Active
Activity [14]: inactive
Activity (HEK-293T [15]): inactive
Activity (HEK-293T [16]): inactive
Activity (HEK-293T [17]): inactive
Activity [18]: Active
Activity (HEK-293T [19]): Active
Activity [20]: inactive
Activity (HEK-293T [21]): inactive
Activity [22]: Active
Activity [23]: Active
Activity [24]: Active
Activity [25]: Active
Activity [26]: Active
Activity [27]: Dose-dependent effect

COc1ccccc1N1CCN(c2ncnc3[nH]nc(Br)c23)CC1
IC50 [28]: 9.1 nM
Activity [29]: inactive
